Values quoted from earlier work, collected in patent US11406718B2, “Methods of detecting pancreobiliary ductal leaks” (CHIRHOCLIN, INC., priority 2012, dated 2022).
No end group written: not given here.

Columns and labels:
[1] = tested on: pancreas

Substance	serious adverse drug reactions (human secretin stimulation)	adverse reaction seen rarely (thousands of patients in pancreobiliary function testing with human secretin)	allergic reactions (human, in vivo)	dose safely given (human, in vivo) [µg/kg]	hemodynamic effects (human, in vivo)	largest dose administered in a study, found safe (human, in vivo) [µg]	risk of acute pancreatitis episodes (human, in vivo)	effect on pancreatic duct diameter ([1]; in vivo)	effect on sphincter of Oddi ([1]; in vivo)	effect on pancreatic juice ([1]; primary action)
human secretin	There has not been any serious reported adverse drug reaction	flushing of the face with stable vital signs								
secretin (HSDGTFTSELSRLRDSARLQRLLQGLV; ends and bridges not checked; UniProt P63298 33-59, looked up) [3055.5 MW (27 amino acid) gastrointestinal peptide hormone originally extracted from the porcine duodenum]			No allergic reactions have been reported	0.78	No significant hemodynamic effects have been observed	160	not known to increase the risk of acute pancreatitis episodes	increases the pancreatic duct diameter	causes sphincter of Oddi relaxation	increase the volume and bicarbonate content of pancreatic juice
